Drawing on patent US4945114A, “Therapeutic agents containing enantiomers of propafenone” (priority 1987, dated 1990), this text covers Ki and ED50 for three compounds.

Test [1] has as its target T1, β2-receptor subtype (rat lung membranes, 25% of β1, 75% of β2) (Rattus norvegicus, UniProt P10608).
T1 construct: rat lung membranes; from tissue; host or cells: rat lung membranes
Kind of test: Inhibition of specific 3H-dihydroalprenolol binding in rat lung membranes. The settings on record: 1 nM 3H-dihydroalprenolol, confidence limits in brackets, read-out: Lung Ki (competition constant). On the procedure:
Two experiments were carried out with three batches.

Test [2] relates to aconitine-induced arrhythmia. Kind of test: Antiarrhythmic action in aconitine-induced arrhythmia of the rat. The following applies: iv, 5 min, read-out: Antiarrhythmic effect on aconitine-induced arrhythmias ED 50%. The format is in vivo. The procedure: 2. Determination of the antiarrhythmic action in aconitine-induced arrhythmia of the rat
The experimental animals used were male Sprague-Dawley rats weighing from 180 to 300 g. Anaesthesia was effected intraperitoneally with 100 mg/kg of thiobutabarbital. To induce arrhythmias, aconitine was infused at a rate of 5 μg per kg per minute. The test substances were administered intravenously 2 minutes before the beginning of the aconitine infusion. The parameter measured was the duration of the aconitine infusion when the first arrhythmias (loss of P, ventricular extrasystoles and tachycardias) appeared in the ECG of the animals. In untreated animals, the aconitine-induced arrhythmia occurred after 3.3±0.11 minutes (n=120). The ED 50% was determined from the linear relationship between log dose (mg/kg) of the test substances and the relative prolongation of aconitine infusion duration (Δ%).

SMILES strings stand for the structures. Counter-ions that a name gives are not always drawn.

T1 sequence (P10608 whole entry): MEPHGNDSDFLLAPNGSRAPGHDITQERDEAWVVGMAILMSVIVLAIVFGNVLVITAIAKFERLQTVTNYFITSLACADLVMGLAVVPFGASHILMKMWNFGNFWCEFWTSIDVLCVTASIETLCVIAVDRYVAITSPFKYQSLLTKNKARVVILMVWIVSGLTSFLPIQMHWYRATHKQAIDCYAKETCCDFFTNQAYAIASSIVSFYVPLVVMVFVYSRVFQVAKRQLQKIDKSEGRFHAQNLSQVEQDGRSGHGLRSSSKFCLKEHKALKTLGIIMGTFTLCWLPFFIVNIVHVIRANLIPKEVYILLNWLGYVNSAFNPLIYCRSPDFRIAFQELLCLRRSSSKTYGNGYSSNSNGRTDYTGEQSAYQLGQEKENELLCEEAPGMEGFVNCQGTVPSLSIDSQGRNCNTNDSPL

As for `CCCNCC(O)COc1ccccc1C(=O)CCc1ccccc1` (racemic) [(R,S)-propafenone, 2'-(2-hydroxy-3-propylaminopropoxy)-3-phenylpropiophenone, reference compound], the Ki in test [1] turned out to be 32 nM. Besides, the ED50 in test [2] came to 0.724 mg/kg.

On to `CCCNC[C@H](O)COc1ccccc1C(=O)CCc1ccccc1` [(S)-propafenone, (S)-propafenone . HCl], for which the Ki in test [1] was determined as 14 nM. Further, the ED50 in test [2] stood at 0.676 mg/kg.

`CCCNC[C@@H](O)COc1ccccc1C(=O)CCc1ccccc1` [(R)-propafenone, (R)-propafenone . HCl]: the Ki in test [1] is 257 nM. In test [2], the ED50 came out at 0.801 mg/kg.
